Assay results as given in US20060148838A1, “Novel pyrrolodihydroisoquinolines useful in the treatment of cancer” (Altana Pharma AG, priority 2003, published 2006).

Experiments:
[1] = tested on: NCl-H460 non-small cell lung cancer cells; assay: Alamar Blue cell viability assay, anti-proliferative/cytotoxic activity; type: cell-based; settings: 72 hours incubation, one range stated for all listed Examples, read-out: −log IC50 NCl-H460 (converted)
Experimental: The anti-proliferative/cytotoxic activity of the compounds described herein, can be tested on NCl-H460 non-small cell lung cancer cells using the Alamar Blue cell viability assay (described in O'Brien et al. Eur J Biochem 267, 5421-5426, 2000). The compounds are dissolved as 20 mM solutions in dimethylsulfoxide (DMSO) and subsequently diluted in semi-logarithmic steps. DMSO dilutions are further diluted 1:100 into Dulbecco's modified Eagle's medium (DMEM) containing 10% fetal calf serum to a final concentration twice as much as the final concentration in the test. NCl-460 cells are seeded into 96 well flat bottom plates at a density of 4000 cells per well in a volume of 50 μl per well. 24 hours after seeding the 50 μl each of the compound dilutions in DMEM medium are added into each well of the 96 Well plate. Each compound dilution is tested as quadruplicates. Wells containing untreated control cells are filled with 50 μl DMEM medium containing 1% DMSO. The cells are then incubated with the substances for 72 hours at 37° C. In a humified atmosphere containing 5% carbon dioxide. To determine the viability of the cells, 10 μl of an Alamar Blue solution (Biosource) are added and the fluorescence is measured at an extinction of 544 nm and an emission of 590 nm. For the calculation of cell viability the emission value from untreated cells is set to 100% viability and the emission rates of treated cells are set in relation to the values of untreated cells. Viabilities are expressed as % values.
The corresponding IC50 values of the compounds for anti-proliferative/cytotoxic activity are determined from the concentration-effect curves.
Representative advantageous IC50 values for anti-proliferation/cytotoxicity determined for the compounds mentioned and numbered as Examples in the examples above follow from the following table A, in which the numbers of the compound correspond to the numbers of the examples.

Row | melting point | SMILES | IC50 [1]
1 | – | CCOC(=O)c1c(-c2cc(C)c(O)c(C)c2)c(C)n2c1-c1cc(OC)c(OC)cc1C(C)C2 (racemic) [Example 2, (6RS)-2-(4-Hydroxy-3,5-dimethyl-phenyl)-8,9-dimethoxy-3,6-dimethyl-5,6-dihydro-pyrrolo[2,1-a]isoquinoline-1-carboxylic acid ethyl ester] | 398 to 3160 nM
2 | 200 to 202 °C | CCOC(=O)c1c(-c2cc(C)c(O)c(C)c2)c(C)n2c1-c1cc(OC)c(OC)cc1C(C)(C)C2 [Example 1, 2-(4-hydroxy-3,5-dimethyl-phenyl)-8,9-dimethoxy-3,6,6-trimethyl-5,6-dihydro-pyrrolo[2,1-a]isoquinoline-1-carboxylic acid ethyl ester] | 398 to 3160 nM
3 | 107 to 110 °C | CCOC(=O)c1c(-c2cccc(N(C)C)c2)c(C)n2c1-c1cc(OC(F)F)c(OC)cc1CC2 [Example 4, 9-(1,1-Difluoro-methoxy)-2-(3-dimethylamino-phenyl)-8-methoxy-3-methyl-5,6-dihydro-pyrrolo[2,1-a]isoquinoline-1-carboxylic acid ethyl ester] | 398 to 3160 nM
4 | 152 to 155 °C | CCOC(=O)c1c(-c2cc(C)c(O)c(C)c2)c(C)n2c1-c1cc(OC(F)F)c(OC)cc1CC2 [Example 5, 9-(1,1-Difluoro-methoxy)-2-(4-hydroxy-3,5-dimethyl-phenyl)-8-methoxy-3-methyl-5,6-dihydro-pyrrolo[2,1-a]isoquinoline-1-carboxylic acid ethyl ester] | 398 to 3160 nM
5 | 246 to 251 °C | CCOC(=O)c1c(-c2cc(C)c(O)c(C)c2)c(C)n2c1-c1c(cc(OC)c(OC)c1OC)CC2 [Example 7, 2-(4-Hydroxy-3,5-dimethyl-phenyl)-8,9,10-trimethoxy-3-methyl-5,6-dihydro-pyrrolo[2,1-a]isoquinoline-1-carboxylic acid ethyl ester] | –
6 | 155 °C | CCOC(=O)c1c(-c2cc(OC)c(OC)c(OC)c2)c(C)n2c1-c1cc(OC)c(OC(F)F)cc1CC2 [Example 8, 8-(1,1-Difluoro-methoxy)-9-methoxy-3-methyl-2-(3,4,5-trimethoxy-phenyl)-5,6-dihydro-pyrrolo[2,1-a]isoquinoline-1-carboxylic acid ethyl ester] | –
7 | 126 to 128 °C | CCOC(=O)c1c(-c2cc(C)c(O)c(C)c2)c(C)n2c1-c1cc(OC)c(OC(F)F)cc1CC2 [Example 9, 8-(1,1-Difluoro-methoxy)-2-(4-hydroxy-3,5-dimethyl-phenyl)-9-methoxy-3-methyl-5,6-dihydro-pyrrolo[2,1-a]isoquinoline-1-carboxylic acid ethyl ester] | 398 to 3160 nM
8 | – | CCOC(=O)c1c(-c2cccc(N(C)C)c2)c(C)n2c1-c1cc(OC)c(OC(F)F)cc1CC2 [Example 10, 8-(1,1-Difluoro-methoxy)-2-(3-dimethylamino-phenyl)-9-methoxy-3-methyl-5,6-dihydro-pyrrolo[2,1-a]isoquinoline-1-carboxylic acid ethyl ester] | 398 to 3160 nM
9 | 172 to 174 °C | CCOC(=O)c1c(-c2cc(OC)c(OC)c(OC)c2)c(C)n2c1-c1cc(Cl)c(OC)cc1CC2 [Example 15, 9-Chloro-8-methoxy-3-methyl-2-(3,4,5-trimethoxy-phenyl)-5,6-dihydro-pyrrolo[2,1-a]isoquinoline-1-carboxylic acid ethyl ester] | –
10 | – | CCOC(=O)c1c(-c2cccc(N(C)C)c2)c(C)n2c1-c1cc(Cl)c(OC)cc1CC2 [Example 16, 9-Chloro-2-(3-dimethylamino-phenyl)-8-methoxy-3-methyl-5,6-dihydro-pyrrolo[2,1-a]isoquinoline-1-carboxylic acid ethyl ester] | 398 to 3160 nM
11 | 167 to 169 °C | CCOC(=O)c1c(-c2cc(C)c(O)c(C)c2)c(C)n2c1-c1cc(OC)c(Cl)cc1CC2 [Example 17, 8-Chloro-2-(4-hydroxy-3,5-dimethyl-phenyl)-9-methoxy-3-methyl-5,6-dihydro-pyrrolo[2,1-a]isoquinoline-1-carboxylic acid ethyl ester] | –
12 | 169 to 171 °C | CCOC(=O)c1c(-c2cc(C)c(O)c(C)c2)c(C)n2c1-c1cc(OC)c(OCCOC)cc1CC2 [Example 18, 2-(4-Hydroxy-3,5-dimethyl-phenyl)-9-methoxy-8-(2-methoxy-ethoxy)-3-methyl-5,6-dihydro-pyrrolo[2,1-a]isoquinoline-1-carboxylic acid ethyl ester] | 398 to 3160 nM
13 | 152 to 154 °C | CCOC(=O)c1c(-c2cc(OC)c(OC)c(OC)c2)c(C)n2c1-c1cc(OC)c(OCCOC)cc1CC2 [Example 19, 9-Methoxy-8-(2-methoxy-ethoxy)-3-methyl-2-(3,4,5-trimethoxy-phenyl)-5,6-dihydro-pyrrolo[2,1-a]isoquinoline-1-carboxylic acid ethyl ester] | –
14 | 126 to 128 °C | CCOC(=O)c1c(-c2cccc3ccccc23)c(C)n2c1-c1cc(OC)c(OCCOC)cc1CC2 [Example 20, 9-Methoxy-8-(2-methoxy-ethoxy)-3-methyl-2-naphthalen-1-yl-5,6-dihydro-pyrrolo[2,1-a]isoquinoline-1-carboxylic acid ethyl ester] | 398 to 3160 nM
15 | – | CCOC(=O)c1c(-c2cc(C)c(O)c(C)c2)c(C)n2c1-c1cc(F)c(OC)cc1CC2 [Example 21, 9-Fluoro-2-(4-hydroxy-3,5-dimethyl-phenyl)-8-methoxy-3-methyl-5,6-dihydro-pyrrolo[2,1-a]isoquinoline-1-carboxylic acid ethyl ester] | 398 to 3160 nM
16 | 209 to 211 °C | CCOC(=O)c1c(-c2cc(C)c(O)c(C)c2)c(C)n2c1-c1cc([N+](=O)[O-])c(OC)cc1CC2 [Example 22, 2-(4-Hydroxy-3,5-dimethyl-phenyl)-8-methoxy-3-methyl-9-nitro-5,6-dihydro-pyrrolo[2,1-a]isoquinoline-1-carboxylic acid ethyl ester] | 398 to 3160 nM
17 | 179 to 181 °C | CCOC(=O)c1c(-c2cc(C)c(O)c(C)c2)c(C)n2c1-c1cc(C)c(OC)cc1CC2 [Example 23, 2-(4-Hydroxy-3,5-dimethyl-phenyl)-8-methoxy-3,9-dimethyl-5,6-dihydro-pyrrolo[2,1-a]isoquinoline-1-carboxylic acid ethyl ester] | –
18 | 194 to 196 °C | COc1cc2c(cc1OC)-c1c(C(=O)c3ccccc3)c(-c3cc(C)c(O)c(C)c3)c(C)n1CC2 [Example 26, 1-[2-(4-hydroxy-3,5-dimethyl-phenyl)-8,9-dimethoxy-3-methyl-5,6-dihydro-pyrrolo[2,1-a]isoquinolin-1-yl]-1-phenyl-methanone] | –
19 | 210 to 214 °C | COc1cc2c(cc1OC)-c1c(-c3ccccc3)c(-c3cc(C)c(O)c(C)c3)c(C)n1CC2 [Example 27, 4-(8,9-Dimethoxy-3-methyl-1-phenyl-5,6-dihydro-pyrrolo[2,1-a]isoquinolin-2-yl)-2,6-dimethyl-phenol] | –
20 | – | COc1cc2c(cc1OC)-c1c(C(=O)NC(C)C)c(-c3cc(C)c(O)c(C)c3)c(C)n1CC2 [Example 30, 2-(4-Hydroxy-3,5-dimethyl-phenyl)-8,9-dimethoxy-3-methyl-5,6-dihydro-pyrrolo[2,1-a]isoquinoline-1-carboxylic acid isopropylamide] | 398 to 3160 nM
21 | 259 to 261 °C | COc1cc2c(cc1OC)-c1c(C(=O)N(C)C)c(-c3cc(C)c(O)c(C)c3)c(C)n1CC2 [Example 31, 2-(4-Hydroxy-3,5-dimethyl-phenyl)-8,9-dimethoxy-3-methyl-5,6-dihydro-pyrrolo[2,1-a]isoquinoline-1-carboxylic acid dimethylamide] | –
22 | 281 to 283 °C | CNC(=O)c1c(-c2cc(C)c(O)c(C)c2)c(C)n2c1-c1cc(OC)c(OC)cc1CC2 [Example 32, 2-(4-Hydroxy-3,5-dimethyl-phenyl)-8,9-dimethoxy-3-methyl-5,6-dihydro-pyrrolo[2,1-a]isoquinoline-1-carboxylic acid methylamide] | –
23 | 229 to 231 °C | COc1cc2c(cc1OC)-c1c(C(N)=O)c(-c3cc(C)c(O)c(C)c3)c(C)n1CC2 [Example 33, 2-(4-Hydroxy-3,5-dimethyl-phenyl)-8,9-dimethoxy-3-methyl-5,6-dihydro-pyrrolo[2,1-a]isoquinoline-1-carboxylic acid amide] | –
24 | 242 to 244 °C | CCNC(=O)c1c(-c2cc(C)c(O)c(C)c2)c(C)n2c1-c1cc(OC)c(OC)cc1CC2 [Example 35, 2-(4-Hydroxy-3,5-dimethyl-phenyl)-8,9-dimethoxy-3-methyl-5,6-dihydro-pyrrolo[2,1-a]isoquinoline-1-carboxylic acid ethylamide] | –
25 | 254 to 256 °C | COc1cc2c(cc1OC)-c1c(C(=O)NC3CC3)c(-c3cc(C)c(O)c(C)c3)c(C)n1CC2 [Example 37, 2-(4-Hydroxy-3,5-dimethyl-phenyl)-8,9-dimethoxy-3-methyl-5,6-dihydro-pyrrolo[2,1-a]isoquinoline-1-carboxylic acid cyclopropylamide] | –
